Patent US20240207427A1, “SELECTIVE DRUG RELEASE FROM INTERNALIZED CONJUGATES OF BIOLOGICALLY ACTIVE COMPOUNDS” (priority 2021, published 2024)
Read-outs that look alike come from different tables or passages of the source.

Assays:
Format in all cases: cell-based
[1] = system: anaplastic large cell lymphoma cells (Karpas299); assay: In vitro potency (CellTiter-Glo, 96 h), Karpas299; settings: Homo sapiens, KARPAS-299, 96 h, CellTiter-Glo after 96 h exposure
Summary of the method: (§1)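 Medium: RPMI 1640 + 20% FBS. Pre-seeding: 24 h. Treatment: ADC or CPT free drug serial dilutions, 96 h, 37 °C. Read-out: luminescence; IC50 in ng/mL and nmol/L.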

[2] = system: renal carcinoma cells (786-O); assay: In vitro potency (CellTiter-Glo, 96 h), 786-O; settings: Homo sapiens, 786-0, 96 h, CellTiter-Glo after 96 h exposure
Summary of the method: as §1

[3] = system: anaplastic large cell lymphoma cells (DELBVR); assay: In vitro potency (CellTiter-Glo, 96 h), DELBVR
Summary of the method: as §1

[4] = system: non-small-cell lung cancer cells (Calu1); assay: In vitro potency (CellTiter-Glo, 96 h), Calu1; settings: Homo sapiens, Calu-1, 96 h, read-out: IC50 (nmol/L) Calu1
Summary of the method: (§2)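 Antibody-drug conjugates, prepared as dilution series in culture medium, were added to cells seeded a day earlier in RPMI 1640 supplemented with 20% FBS. After four days at 37 °C, luminescence measured growth inhibition.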

[5] = system: B-lymphocyte cancer cells (SU-DHL4); assay: In vitro potency (CellTiter-Glo, 96 h), SU-DHL-4; settings: Homo sapiens, SU-DHL-4, 96 h, CellTiter-Glo after 96 h exposure
Summary of the method: as §1

[6] = system: Ls174T cells; assay: In vitro potency (CellTiter-Glo, 96 h), Ls174T; settings: Homo sapiens, LS174T, CellTiter-Glo after 96 h exposure
Summary of the method: (§3)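 Four-day continuous exposure at 37 °C to serially diluted ADC or free camptothecin payload, in RPMI 1640 with 20% FBS after 24 h pre-plating. Luminescent signal gave IC50 (ng/mL; nmol/L).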

[7] = system: breast cancer cells (MDA-MB-231); assay: In vitro potency (CellTiter-Glo, 96 h), MDA-MB-231; settings: Homo sapiens, MDA-MB-231, 96 h, CellTiter-Glo after 96 h exposure
Summary of the method: as §1

[8] = system: Hodgkin's lymphoma cells (L540cy); assay: In vitro potency (CellTiter-Glo, 96 h), L540cy
Summary of the method: as §1

[9] = system: melanoma cells (A2058); assay: In vitro potency (CellTiter-Glo, 96 h), A2058; settings: Homo sapiens, A2058, 96 h, read-out: IC50 (nmol/L) A2058
Summary of the method: as §2

[10] = system: pancreatic cancer cells (BxPC3); assay: In vitro potency (CellTiter-Glo, 96 h), BxPC3; settings: Homo sapiens, BXPC-3, 96 h, CellTiter-Glo after 96 h exposure
Summary of the method: (§4)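 Seed log-phase cells 24 h (RPMI 1640, 20% FBS); add ADC serial dilutions; incubate 96 h, 37 °C; read luminescence; IC50 in ng/mL.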

[11] = system: anaplastic large cell lymphoma cells (DEL); assay: In vitro potency (CellTiter-Glo, 96 h), DEL
Summary of the method: as §3

[12] = system: acute myeloid leukemia cells (MOLM-13); assay: In vitro potency (CellTiter-Glo, 96 h), MOLM-13; settings: Homo sapiens, MOLM-13, 96 h, CellTiter-Glo after 96 h exposure
Summary of the method: as §4

[13] = CPT free drugs, Table 24, read-out: IC50 (nmol/L) Karpas299
[14] = CPT free drugs, Table 24, read-out: IC50 (nmol/L) 786-O
[15] = CPT free drugs, Table 24, CellTiter-Glo after 96 h exposure, read-out: IC50 (nmol/L) DELBVR
[16] = CPT free drugs, Table 24, CellTiter-Glo after 96 h exposure
[17] = CPT free drugs, Table 24, read-out: IC50 (nmol/L) SU-DHL-4
[18] = CPT free drugs, Table 24, read-out: IC50 (nmol/L) Ls174T
[19] = CPT free drugs, Table 24, read-out: IC50 (nmol/L) MDAMB231
[20] = CPT free drugs, Table 24, CellTiter-Glo after 96 h exposure, read-out: IC50 (nmol/L) L540cy
[21] = CPT free drugs, Table 24, read-out: IC50 (nmol/L) BxPC3
[22] = CPT free drugs, Table 24, CellTiter-Glo after 96 h exposure, read-out: IC50 (nmol/L) DEL
[23] = CPT free drugs, Table 24, read-out: IC50 (nmol/L) MOLM-13

Structure (SMILES) | IC50 [1, 13] | IC50 [2, 14] | IC50 [3, 15] | IC50 [4, 16] | IC50 [5, 17] | IC50 [6, 18] | IC50 [7, 19] | IC50 [8, 20] | IC50 [9, 16] | IC50 [10, 21] | IC50 [11, 22] | IC50 [12, 23] | also measured
CC[C@@]1(O)C(=O)OCc2c1cc1n(c2=O)Cc2c-1nc1cc(F)c(OC)c(F)c1c2CN [Compound 2x] | 11 nmol/L | 18 nmol/L | 5 nmol/L | 27 nmol/L | 7 nmol/L | 16 nmol/L | 91 nmol/L | 6 nmol/L | 5 nmol/L | 34 nmol/L | 4 nmol/L | 19 nmol/L | –
CC[C@@]1(O)C(=O)OCc2c1cc1n(c2=O)Cc2c-1nc1cc(F)c(C)c(Cl)c1c2CN [Compound 2y] | – | – | – | – | – | – | – | – | – | – | – | – | IC50 ([1]; read-out: IC50 (nmol/L) Karpas299, CPT free drugs, Table 24): 2 nmol/L; IC50 ([2]; read-out: IC50 (nmol/L) 786-O, CPT free drugs, Table 24): 3 nmol/L; IC50 ([3]; read-out: IC50 (nmol/L) DELBVR, CPT free drugs, Table 24, CellTiter-Glo after 96 h exposure): 1 nmol/L; IC50 [4]: 15 nmol/L; IC50 ([5]; read-out: IC50 (nmol/L) SU-DHL-4, CPT free drugs, Table 24): 1 nmol/L; IC50 ([6]; 96 h, read-out: IC50 (nmol/L) Ls174T, CPT free drugs, Table 24): 3 nmol/L; IC50 ([7]; read-out: IC50 (nmol/L) MDAMB231, CPT free drugs, Table 24): 15 nmol/L; IC50 ([8]; read-out: IC50 (nmol/L) L540cy, CPT free drugs, Table 24, CellTiter-Glo after 96 h exposure): 1 nmol/L; IC50 [9]: 1 nmol/L; IC50 ([10]; read-out: IC50 (nmol/L) BxPC3, CPT free drugs, Table 24): 6 nmol/L; IC50 ([11]; read-out: IC50 (nmol/L) DEL, CPT free drugs, Table 24, CellTiter-Glo after 96 h exposure): 1 nmol/L; IC50 ([12]; read-out: IC50 (nmol/L) MOLM-13, CPT free drugs, Table 24): 16 nmol/L
CC[C@@]1(O)C(=O)OCc2c1cc1n(c2=O)Cc2c-1nc1cc(OC)c(C)c(F)c1c2CN [Compound 2z] | > 1000 nmol/L | > 1000 nmol/L | > 1000 nmol/L | > 1000 nmol/L | > 1000 nmol/L | > 1000 nmol/L | > 1000 nmol/L | > 1000 nmol/L | > 1000 nmol/L | > 1000 nmol/L | > 1000 nmol/L | > 1000 nmol/L | –
CC[C@@]1(O)C(=O)OCc2c1cc1n(c2=O)Cc2c-1nc1ccc(O)cc1c2CN [Compound 3a] | 59.4 nmol/L | 52.3 nmol/L | 14 nmol/L | 388 nmol/L | 16.4 nmol/L | 37.1 nmol/L | 38.5 nmol/L | 18.2 nmol/L | 16 nmol/L | 135 nmol/L | 10 nmol/L | 58 nmol/L | –
CC[C@@]1(O)C(=O)OCc2c1cc1n(c2=O)Cc2c-1nc1cc(F)c(O)cc1c2CN [Compound 3b] | > 1000 nmol/L | > 1000 nmol/L | > 1000 nmol/L | > 1000 nmol/L | > 1000 nmol/L | > 1000 nmol/L | > 1000 nmol/L | > 1000 nmol/L | > 1000 nmol/L | > 1000 nmol/L | > 1000 nmol/L | > 1000 nmol/L | –
CC[C@@]1(O)C(=O)OCc2c1cc1n(c2=O)Cc2c-1nc1cc(F)c(O)c3c1c2CNC3 [Compound 3c] | > 1000 nmol/L | > 1000 nmol/L | > 1000 nmol/L | > 1000 nmol/L | > 1000 nmol/L | > 1000 nmol/L | > 1000 nmol/L | > 1000 nmol/L | > 1000 nmol/L | > 1000 nmol/L | > 1000 nmol/L | > 1000 nmol/L | –
CC[C@@]1(O)C(=O)OCc2c1cc1n(c2=O)Cc2c-1nc1cc(F)c(O)c(F)c1c2CN [Compound 3d] | > 1000 nmol/L | > 1000 nmol/L | > 1000 nmol/L | > 1000 nmol/L | > 1000 nmol/L | > 1000 nmol/L | > 1000 nmol/L | > 1000 nmol/L | > 1000 nmol/L | > 1000 nmol/L | 843 nmol/L | > 1000 nmol/L | –
